According to the NIST ThermoML archive (doi:10.1016/j.jct.2016.06.012):

Experiment: xn = mol fraction of the nth substance listed
Conditions: 100 kPa, Liquid; for viscosity: Capillary tube (Ostwald / Ubbelohde) method; for mass density: Vibrating tube method

CCC[n+]1ccn(C)c1C.O=S(=O)([N-]S(=O)(=O)C(F)(F)F)C(F)(F)F + O=C1CCCO1
Conditions	mass density [kg/m3]	viscosity [mPa·s]
293.15 K, x1 = 0.0505	1184.15	2.47
293.15 K, x1 = 0.1001	1226.3	3.4
293.15 K, x1 = 0.1492	1259.98	4.72
293.15 K, x1 = 0.1998	1288.55	6.2
293.15 K, x1 = 0.3008	1332.65	9.95
293.15 K, x1 = 0.4031	1365.48	15.94
293.15 K, x1 = 0.5048	1390.46	25.66
293.15 K, x1 = 0.6031	1409.62	38.98
293.15 K, x1 = 0.6973	1424.67	54.53
293.15 K, x1 = 0.7994	1438.25	74.49
293.15 K, x1 = 0.8711	1446.46	89.77
293.15 K, x1 = 1	1459.14	121.7
298.15 K, x1 = 0.0505	1179.18	2.26
298.15 K, x1 = 0.1001	1221.4	3.07
298.15 K, x1 = 0.1492	1255.08	4.21
298.15 K, x1 = 0.1998	1283.68	5.44
298.15 K, x1 = 0.3008	1327.83	8.61
298.15 K, x1 = 0.4031	1360.68	13.23
298.15 K, x1 = 0.5048	1385.67	20.56
298.15 K, x1 = 0.6031	1404.85	30.47
298.15 K, x1 = 0.6973	1419.93	42.29
298.15 K, x1 = 0.7994	1433.53	57.35
298.15 K, x1 = 0.8711	1441.74	69.78
298.15 K, x1 = 1	1454.44	92.8
303.15 K, x1 = 0.0505	1174.28	2.1
303.15 K, x1 = 0.1001	1216.49	2.82
303.15 K, x1 = 0.1492	1250.18	3.78
303.15 K, x1 = 0.1998	1278.79	4.88
303.15 K, x1 = 0.3008	1322.96	7.6
303.15 K, x1 = 0.4031	1355.84	11.41
303.15 K, x1 = 0.5048	1380.86	17.18
303.15 K, x1 = 0.6031	1400.07	24.6
303.15 K, x1 = 0.6973	1415.16	33.28
303.15 K, x1 = 0.7994	1428.78	44.5
303.15 K, x1 = 0.8711	1437	54.92
303.15 K, x1 = 1	1449.72	72.1
308.15 K, x1 = 0.0505	1169.38	1.96
308.15 K, x1 = 0.1001	1211.58	2.56
308.15 K, x1 = 0.1492	1245.28	3.45
308.15 K, x1 = 0.1998	1273.9	4.42
308.15 K, x1 = 0.3008	1318.1	6.83
308.15 K, x1 = 0.4031	1351.01	9.99
308.15 K, x1 = 0.5048	1376.06	14.57
308.15 K, x1 = 0.6031	1395.28	20.33
308.15 K, x1 = 0.6973	1410.4	27.25
308.15 K, x1 = 0.7994	1424.03	35.98
308.15 K, x1 = 0.8711	1432.26	44.23
308.15 K, x1 = 1	1445	57.76
313.15 K, x1 = 0.0505	1164.47	1.82
313.15 K, x1 = 0.1001	1206.67	2.36
313.15 K, x1 = 0.1492	1240.38	3.18
313.15 K, x1 = 0.1998	1269.01	4.04
313.15 K, x1 = 0.3008	1313.24	6.09
313.15 K, x1 = 0.4031	1346.18	8.71
313.15 K, x1 = 0.5048	1371.25	12.55
313.15 K, x1 = 0.6031	1390.5	17.39
313.15 K, x1 = 0.6973	1405.64	22.52
313.15 K, x1 = 0.7994	1419.29	30.01
313.15 K, x1 = 0.8711	1427.53	36.05
313.15 K, x1 = 1	1440.28	46.53
318.15 K, x1 = 0.0505	1159.57	1.68
318.15 K, x1 = 0.1001	1201.76	2.2
318.15 K, x1 = 0.1492	1235.48	2.97
318.15 K, x1 = 0.1998	1264.13	3.73
318.15 K, x1 = 0.3008	1308.38	5.5
318.15 K, x1 = 0.4031	1341.35	7.79
318.15 K, x1 = 0.5048	1366.46	10.94
318.15 K, x1 = 0.6031	1385.73	15.01
318.15 K, x1 = 0.6973	1400.88	19.07
318.15 K, x1 = 0.7994	1414.55	24.95
318.15 K, x1 = 0.8711	1422.81	29.91
318.15 K, x1 = 1	1435.57	38.4
323.15 K, x1 = 0.0505	1154.66	1.58
323.15 K, x1 = 0.1001	1196.85	2.04
323.15 K, x1 = 0.1492	1230.58	2.73
323.15 K, x1 = 0.1998	1259.24	3.38
323.15 K, x1 = 0.3008	1303.52	4.93
323.15 K, x1 = 0.4031	1336.53	6.9
323.15 K, x1 = 0.5048	1361.66	9.56
323.15 K, x1 = 0.6031	1380.96	12.76
323.15 K, x1 = 0.6973	1396.13	16.4
323.15 K, x1 = 0.7994	1409.83	20.66
323.15 K, x1 = 0.8711	1418.1	24.69
323.15 K, x1 = 1	1430.87	31.89
